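96-well plates; 48 h exposure; 5 concentrations. Endpoints by linear interpolation between flanking doses. Not reached: highest tested concentration assigned. GI50 = concentration required for 50% inhibition of growth.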 Activity calls are given as the source filed them. No stated cut-off is given here; in the data, active = GI50 up to about 1.1 µM and inactive = higher.
Legend:
Test in all cases: inhibition of tumour cell growth, NCI panel, 48 h
[1] = test system: HCC 2998
[2] = test system: OVCAR-5
[3] = test system: MOLT-4
[4] = test system: HCT-116
[5] = test system: HL-60
[6] = test system: UACC-257
[7] = test system: ACHN
[8] = test system: Malme-3M
[9] = test system: NCI-H226
[10] = test system: RPMI-8226
[11] = test system: UO-31
[12] = test system: SK-MEL-2
[13] = test system: SR
[14] = test system: IGROV-1
[15] = test system: COLO 205
[16] = test system: HOP-92
[17] = test system: SF-295
[18] = test system: HT-29
[19] = test system: DU-145
[20] = test system: MDA-N

Measured: GI50

CC(C)OP(=O)(OC(C)C)/C(=N/Nc1ccc([N+](=O)[O-])cc1)NCCN/C(=N\Nc1ccc([N+](=O)[O-])cc1)P(=O)(OC(C)C)OC(C)C
inactive: [1] 5.4 µM | [2] 31.6 µM | [3] 3.31 µM | [4] 3.48 µM | [5] 3.94 µM | [6] 6.61 µM | [7] 3.56 µM | [8] 8.83 µM | [9] 3.94 µM | [10] 3.51 µM | [11] 4.4 µM | [12] 4.92 µM | [13] 4.03 µM | [14] 2.31 µM | [15] 3.93 µM | [16] 3.35 µM

C=CCC12CC(=O)CCC1c1ccc(OC)cc1C2=O (centres undefined)
inactive: [1] > 100 µM | [2] > 100 µM | [3] > 100 µM | [4] > 100 µM | [5] > 100 µM | [6] > 100 µM | [7] > 100 µM | [8] > 100 µM | [9] > 100 µM | [10] > 100 µM | [11] > 100 µM | [12] > 100 µM | [13] > 100 µM | [17] > 100 µM | [14] > 100 µM | [15] > 100 µM | [18] > 100 µM | [16] > 100 µM

CC(=O)Nc1ccc(/C=C/C(=O)c2sc(-n3nc(-c4ccccc4)cc3-c3ccccc3)nc2C)cc1
inactive: [1] > 10 µM | [2] > 10 µM | [3] > 10 µM | [4] > 10 µM | [5] > 10 µM | [6] 80.9 µM | [7] > 10 µM | [8] > 10 µM | [9] > 10 µM | [10] > 10 µM | [11] > 10 µM | [12] > 10 µM | [13] > 10 µM | [17] > 10 µM | [14] > 10 µM | [15] > 10 µM | [18] 84.7 µM | [16] > 10 µM

C/C=C/C/C=C/CCC(=O)C1OC1C(N)=O (centres undefined)
inactive: [1] 17.3 µM | [2] 18.8 µM | [3] 13.2 µM | [4] 15 µM | [6] 17.3 µM | [7] 15.2 µM | [8] 17.8 µM | [19] 17.5 µM | [11] 11.8 µM | [12] 18.6 µM | [13] 10.6 µM | [17] 15 µM | [14] 16.4 µM | [15] 18.9 µM | [18] 17.3 µM | [16] 16 µM

CCOc1ccc2nc(NC(=O)C(=O)C(c3cnc4ccccc4n3)[N+](=O)[O-])sc2c1 (centres undefined)
inactive: [1] > 100 µM | [20] > 100 µM | [2] > 100 µM | [3] 53.1 µM | [4] > 100 µM | [5] 56.2 µM | [6] > 100 µM | [7] 43.8 µM | [8] > 100 µM | [9] > 100 µM | [10] 61.5 µM | [11] 77.3 µM | [12] > 100 µM | [17] > 100 µM | [14] 41.4 µM | [18] > 100 µM | [16] > 100 µM

Cc1cccc(C)c1NC(=O)C(=O)CC(=O)CO
inactive: [1] > 100 µM | [2] > 100 µM | [3] > 100 µM | [4] > 100 µM | [5] > 100 µM | [6] > 100 µM | [7] > 100 µM | [8] > 100 µM | [9] > 100 µM | [10] > 100 µM | [11] > 100 µM | [12] > 100 µM | [13] > 100 µM | [17] > 100 µM | [14] > 100 µM | [15] > 100 µM | [18] > 100 µM | [16] > 100 µM

COC(=O)C(=O)C1CCCCC(C2=NC3NN=C(N)N3C2=O)C1=O (centres undefined)
inactive: [1] > 100 µM | [2] > 100 µM | [3] > 100 µM | [4] > 100 µM | [5] > 100 µM | [6] > 100 µM | [7] > 100 µM | [8] > 100 µM | [9] > 100 µM | [11] > 100 µM | [12] > 100 µM | [13] > 100 µM | [17] > 100 µM | [14] > 100 µM | [15] > 100 µM | [18] > 100 µM | [16] > 100 µM

C[C@]12CCC[C@H](Cl)C1(O)C[C@H](C(=O)O)CC2 (some centres undefined)
inactive: [1] > 100 µM | [2] > 100 µM | [3] > 100 µM | [4] > 100 µM | [5] > 100 µM | [6] > 100 µM | [7] > 100 µM | [8] > 100 µM | [9] > 100 µM | [10] > 100 µM | [11] > 100 µM | [12] > 100 µM | [13] > 100 µM | [17] > 100 µM | [14] > 100 µM | [15] > 100 µM | [18] > 100 µM | [16] > 100 µM

Cc1c(Cl)ccc2c1NC(=O)C2(O)CC(=O)c1ccc(Cl)cc1 (centres undefined)
inactive: [1] > 42 µM | [2] > 100 µM | [3] 17.7 µM | [4] 27.5 µM | [5] 28.6 µM | [6] 23.7 µM | [7] > 100 µM | [8] 37.8 µM | [9] > 55.2 µM | [10] 30.8 µM | [11] > 100 µM | [12] > 46 µM | [13] 13.9 µM | [17] 24.8 µM | [14] > 100 µM | [15] 32.4 µM | [18] 35 µM | [16] 69.2 µM

COC(=O)C(Cc1nc2ccccc2nc1O)C(=O)C(=O)Nc1ccc(OC)cc1[N+](=O)[O-] (centres undefined)
inactive: [1] > 100 µM | [2] > 100 µM | [3] > 100 µM | [4] > 100 µM | [5] > 100 µM | [6] > 100 µM | [7] > 100 µM | [8] > 100 µM | [9] > 100 µM | [10] > 100 µM | [11] > 100 µM | [12] > 100 µM | [13] > 100 µM | [17] > 100 µM | [14] > 100 µM | [15] > 100 µM | [18] 82.8 µM | [16] 96.2 µM

NC1CC(n2ccc(=O)[nH]c2=O)OC1C(O)CO (centres undefined)
inactive: [1] > 100 µM | [2] > 100 µM | [3] > 100 µM | [4] > 100 µM | [5] > 100 µM | [6] > 100 µM | [7] > 100 µM | [8] > 100 µM | [9] > 100 µM | [10] > 100 µM | [11] > 100 µM | [12] > 100 µM | [13] > 100 µM | [17] > 100 µM | [14] > 100 µM | [15] > 100 µM | [18] > 100 µM | [16] > 100 µM

O=c1c(Cl)cc2nc3ccccc3sc-2c1Cl
inactive: [1] 14.1 µM | [2] 24.7 µM | [3] 3.61 µM | [4] 16.2 µM | [5] 10.6 µM | [6] 2.75 µM | [7] 15.9 µM | [8] 10 µM | [9] 16.5 µM | [19] 12.9 µM | [10] 4.25 µM | [11] 15.3 µM | [12] 13.7 µM | [13] 4.57 µM | [17] 16.9 µM | [14] 13.6 µM | [15] 18.5 µM | [18] 23.2 µM

COC(=O)[C@@](NC(=O)OCc1ccccc1)([C@H](C)O)C(F)(F)F
inactive: [1] > 100 µM | [2] > 100 µM | [3] > 100 µM | [4] > 100 µM | [5] > 100 µM | [6] > 100 µM | [7] > 100 µM | [8] > 100 µM | [9] > 100 µM | [19] > 100 µM | [10] > 100 µM | [11] > 100 µM | [12] > 100 µM | [13] 50.1 µM | [17] > 100 µM | [14] > 100 µM | [15] > 100 µM | [18] > 100 µM | [16] > 100 µM

Cc1cccc(C)c1N1C(=O)C(=O)C(c2nc3ccccc3s2)/C(=N/c2cccc3c(=O)[nH][nH]c(=O)c23)C1=O (centres undefined)
inactive: [1] > 100 µM | [2] > 100 µM | [3] 66.5 µM | [4] > 100 µM | [5] 71.3 µM | [6] > 100 µM | [7] > 100 µM | [8] > 100 µM | [9] > 100 µM | [10] > 100 µM | [11] > 100 µM | [12] > 100 µM | [13] 99.5 µM | [17] > 100 µM | [14] > 100 µM | [15] 41.5 µM | [18] > 100 µM | [16] 92 µM

CCCCc1c2c(nc3c1CCc1cc4c(nc1-3)-c1nc3c(c(CCCC)c1CC4)CCC/C3=C\c1ccccc1)/C(=C/c1ccccc1)CCC2
inactive: [1] 88.3 µM | [2] > 100 µM | [3] > 100 µM | [4] 65.3 µM | [5] 62.1 µM | [6] > 100 µM | [8] > 100 µM | [9] > 100 µM | [10] > 100 µM | [11] > 100 µM | [12] 35.2 µM | [13] > 100 µM | [17] 78.9 µM | [14] 81.5 µM | [15] > 100 µM | [18] 85.3 µM | [16] > 100 µM
